Where two headings read alike, the source gives them in different places.
Tests used:
prolactin = test: Prolactin blood level in rats (enzyme immunometric assay); assay type: in vivo, rat; details: i.p.; measured at 0, 60 and 120 min after treatment
Text: Prolactin secretion: Typical neuroleptics induce hyperprolactinemia, which is frequently associated with gallactorehea and impaired gonadal and sexual function. The measurement of the circulatory plasma prolactin level was therefore used as a sensitive biochemical marker for the psychotropic activity of the known neuroleptics and the chemical conjugates of the present invention, following intraperitoneal or oral administration thereof. Thus, blood was collected from the punctured eye orbital of rats under ether anesthesia and the assay was performed using Millennia, rat prolactin enzyme immunometric assay-kit (DPC, USA).

B16 MDR = test: Proliferation test, B16 MDR cells; assay type: cell-based, murine; details: Mus musculus; linear regression of survival percentage
Experimental: (§1) Cell lines: Human prostate carcinoma (PC-3), human colon carcinoma (HT-29), murine melanoma (B-16) and its drug resistant subclone (B-16 MDR), mouse fibroblasts (3T3), myeloid leukemia (HL 60) and its drug resistant subclone (HL 60 MX2), endometrium cell line (MES SA) and its drug resistant subclone (MES DX5), jurkat T lymphoma and monocyte leukemia (U-937), were used in this study.
(§2) Proliferation of cancer and normal cells: Proliferation was measured by neutral red assay or by a fluorometric assay quantitating DNA content. In the neutral red assay, the neutral red is absorbed by lysosomes, thus causing coloring of living cells. Quantitative analysis is performed by colorimetric assay (ELISA reader at 550 nm). In the fluorometric assay, alamar blue is used as a redox indicator. Alamar blue fluorescence was measured at an excitation wavelength of 544 nm and an emission wavelength of […] (FLUOstar BMG Lab Technologies, Offenburg, Germany).
(§3) The cells were sub-cultured and the tested compounds were added thereto in increasing concentrations. The IC50 values were determined by linear regression of the survival percentage of the cells.

B16 = test: Proliferation test, B16 melanoma cells; assay type: cell-based, murine; details: for IC50: Mus musculus, B16, linear regression of survival percentage
Experimental: as §1, §2, §3

HT-29 = test: Proliferation test, HT-29 cells; assay type: cell-based; details: Homo sapiens, linear regression of survival percentage
Experimental: as §1, §2, §3

PC-3 = test: Proliferation test, PC-3 cells; assay type: cell-based; details: Homo sapiens, linear regression of survival percentage
Experimental: as §1, §2, §3

3T3 = test: Proliferation test, 3T3 fibroblasts; assay type: cell-based; details: Mus musculus, NIH3T3; linear regression of survival percentage
Experimental: as §1, §2, §3

Normal rat fibroblasts = test: Proliferation test, normal rat fibroblasts; assay type: cell-based; details: Fibroblast, linear regression of survival percentage
Experimental: The primary cultures of rat fibroblasts were obtained from neonatal rats using known procedures.
as §2, §3

HL 60 = test: Proliferation test, HL 60 cells; assay type: cell-based; details: Homo sapiens, linear regression of survival percentage
Experimental: as §1, §2, §3

HL 60 MX2 (MDR) = test: Proliferation test, HL 60 MX2 (MDR) cells; assay type: cell-based; details: Homo sapiens, HL60/MX2; linear regression of survival percentage
Experimental: as §1, §2, §3

MES SA = test: Proliferation test, MES SA cells; assay type: cell-based; details: Homo sapiens, linear regression of survival percentage
Experimental: as §1, §2, §3

MES SA DX5 (MDR) = test: Proliferation test, MES SA DX5 (MDR) cells; assay type: cell-based; details: Homo sapiens, linear regression of survival percentage
Experimental: as §1, §2, §3

Jurkat T lymphoma cells = test: Proliferation / viability test, Jurkat T lymphoma cells; assay type: cell-based; details: Homo sapiens
Experimental: as §1, §2, §3

U-937 = test: Proliferation test, U-937 cells; assay type: cell-based; details: Homo sapiens, linear regression of survival percentage
Experimental: as §1, §2, §3

in vivo = details: ICR, mouse, in vivo, ip
Experimental: (§4) Toxicity: In vitro toxicity was determined by measuring the effect of the tested compounds (either known neuroleptics or the chemical conjugates of the invention) on primary cultures of neurons and whole brain neuron and glia cells obtained from the brains of neonatal mice. In vitro toxicity of perphenazine and its chemical conjugate AN 168 was also determined with rat myocytes. Acute toxicity in vivo as determined by the LD50 was evaluated on 2 months old ICR mice following the administration of a single intraperitoneal bolus-dose of drug.
(§5) The in vivo toxicity of perphenazine and AN 167 was evaluated following the intraperitoneal administration of a single dose thereof to mice.

ICR mice = test: Acute toxicity in vivo (LD50) in mice; details: single intraperitoneal dose, compared with perphenazine (FIG. 21)
Experimental: as §4, §5

rats [1] = test: Catalepsy in rats, “wall” test
Experimental: (§6) Animals: Young adult male rats (150-230 grams) were purchased from Harlan (Israel). Animals were divided 2-5/cage and housed in controlled conditions in the animal room for a week prior to the experiments. The experiments were conducted with naive animals, in a double blind procedure. In each experiment various treatment groups (about 5-10 animals each) were tested.
(§7) Catalepsy in rats: The manifestation of the extrapyramidal adverse effects induced by typical neuroleptics was evaluated by the appearance of stereotypic cataleptic behavior in rats following the neuroleptic treatment. Catalepsy was determined by two methods: (i) by measuring the time it took an animal hanging on a cage wall to move its hind legs and reach a flat surface (the “wall” test); and (ii) rats were placed on a flat surface with their anterior limbs leaning on a flat bar (5.5 cm height) resembling a piano playing position. Catalepsy was determined by the time it took an animal to descend and reach the flat surface (the “piano” test). The maximum time of follow up was 2 minutes and these measurements were performed hourly and individually for each animal. These tests provide an assessment of central dopamine (DA) blocking activity and are acceptable criteria for extrapyramidal symptoms induced by anti-psychotic drugs [10].
(§8) A control animals group was treated with the vehicle (lactic acid) only.

rats [2] = test: Behavioral criteria: sedation and mobility score in rats; details: score 0-3; for sedation and mobility score, 30 min / sedation and mobility score, 60 min / sedation and mobility score, 90 min / sedation and mobility score, 120 min / sedation and mobility score, 180 min / sedation and mobility score, 240 min: i.p., 5 mg/kg perphenazine, 7.5 mg/kg fluphenazine or equimolar conjugate; for Sedation score: oral, 4-6 hours after treatment
Experimental: The effect of the administration of the tested compound on animals behavior was measured by evaluating the degree of animal sedation and mobility following the treatment described hereinabove, using a score of from 0 to 3. A score of 0 represents active and mobile animals, 1 represents calm and mobile animals, 2 represents calm and immobile animals and 3 represents completely ataxic and non-alert animals.

rats [3] = test: Catalepsy in rats, “piano” test, oral administration; assay type: in vivo, rat; details: oral, 10 and 20 mg/kg perphenazine or equimolar doses of conjugate
Experimental: To this end, the induced catalepsy, the prolactin blood levels and the animal behavior were measured as described hereinabove, following oral administration of either AN 168 or perphenazine alone to rats. Animals, divided 5 per cage, were treated by oral administration of perphenazine or AN-168 dissolved in 1% lactic acid. Control animals received vehicle (lactic acid) only.
The catalepsy induced by oral administration of various concentrations of AN 168 and perphenazine was measured by the “wall” test and the “piano” test described hereinabove. The time course of catalepsy was measured 4-24 hours following oral administration of 2.5, 5, 10 and 20 mg/kg perphenazine and respective equimolar doses of 3.5, 7, 14 and 28 mg/kg AN-168. The total catalepsy represents the sum of average catalepsy per treated group during the 4-24 hours of follow-up.

mice = test: Catalepsy in mice (bar between two cages); assay type: in vivo, mouse; details: adult male mice, 1.5 mg/kg perphenazine or equimolar dose (FIG. 7a)
Experimental: Young adult male and female mice were purchased from Harlan, Israel. The animals were housed for 4-7 days under controlled conditions prior to experimentation. Experiments were conducted in a double blind procedure. In each experiment various treatment groups (about 10 animals each) were tested.
Catalepsy in mice: The appearance of stereotypic cataleptic behavior in mice following the neuroleptic treatment was measured in two different sets of experiments.
The catalepsy was determined using a system of two cages and a bar therebetween. The mouse was hung in the middle of the bar, and the percentage of animals reaching the target within 2 minutes was monitored 1 hour, 2 hours and 3 hours following the treatment.
The catalepsy was determined using the system described hereinabove. The mouse was hung in the middle of the bar, and the time it took the animal to reach the target was measured.

C6 rat glioma cells [4] = test: Viability of C6 rat glioma cells (neutral red); assay type: cell-based; details: Rattus norvegicus, Glioma cell; 24 hours treatment, neutral red, up to 100 μM (FIG. 14)
Experimental: as §2
The cells were sub-cultured and the tested compounds were added thereto in increasing concentrations, up to 100 μM.

C6 rat glioma cells [5] = test: DNA fragmentation in C6 rat glioma cells (propidium iodide flow cytometry); assay type: cell-based; details: Cisplatin 30 μM; perphenazine 25 and 50 μM; AN 168 25, 50 μM (FIG. 18)
Experimental: Apoptosis and DNA fragmentation: Fragmentation of cell nuclei was studied by flow cytometric analysis of propidium iodide-stained cells. This analysis was performed using a FACScan (Becton Dickinson, Mountain View, Calif.) equipped with an argon ion laser adjusted to an excitation wavelength of 480 nm and with a Doublet Discrimination Module (DDM). Lysis II (Becton Dickinson) software was used for data acquisition. Apoptotic nuclear changes were evaluated according to the criteria of Nicolletti et al..
The DNA fragmentation was determined by the propidium iodide flow cytometric method described hereinabove.

rat myocytes = details: Wistar, rat
Experimental: as §4

rats [6] = details: rat, in vivo, ip, 5 mg/kg
Experimental: as §6, §7, §8

[7] = linear regression of survival percentage, read-out: IC50, JURKAT

| Structure (SMILES) | time at which prolactin blood level peaked (prolactin) [min] | IC50 (B16 MDR) [µM] | IC50 (B16) [µM] | IC50 (HT-29) [µM] | IC50 (PC-3) [µM] | IC50 (3T3) [µM] | IC50 (HL 60) [µM] | IC50 (HL 60 MX2 (MDR)) [µM] | IC50 (MES SA) [µM] | IC50 (MES SA DX5 (MDR)) [µM] | IC50 (Jurkat T lymphoma cells; [7]) [µM] | IC50 (U-937) [µM] | LD50 at 2 weeks (in vivo) [mg/kg] | sedation and mobility score, 30 min (rats [2]) | sedation and mobility score, 60 min (rats [2]) | sedation and mobility score, 90 min (rats [2]) | sedation and mobility score, 120 min (rats [2]) | sedation and mobility score, 180 min (rats [2]) | sedation and mobility score, 240 min (rats [2]) | also measured |
| --- | --- | --- | --- | --- | --- | --- | --- | --- | --- | --- | --- | --- | --- | --- | --- | --- | --- | --- | --- | --- |
| CCCC(=O)OCCN1CCN(CCCN2c3ccccc3Sc3ccc(Cl)cc32)CC1 [AN-167, Perphenazine Butyrate] | 60 | 41.5 ± 1.8 | 17.3 ± 4.5 | 13.3 ± 2.4 | 49.1 | 21.7 | 17.3 | 19.9 | 17.2 | 20.9 | 11.4 | 23.3 | 120 | 0 | 1 | 1 | 2 | 2 | 2 | effect on the proliferation of B16 murine melanoma cells (B16; representative experiment (FIG. 13)): relatively active as anti-proliferative drugs; IC50 (Normal rat fibroblasts): 31.6 µM; time course of mortality (ICR mice): delayed; average of total catalepsy as percentage of the perphenazine-induced catalepsy (rats [1]; equimolar doses, four independent experiments (FIG. 6)): lower catalepsy as compared with perphenazine; induced catalepsy, SAR studies (rats [1]; i.p., 5 mg/kg perphenazine and equimolar conjugates, compared with perphenazine (FIG. 2)): significant reduction of the induced catalepsy; total catalepsy (rats [1]; i.p., 5 mg/kg perphenazine and equimolar conjugates, sum of determinations at 0, 60, 120 min (FIG. 1a)): did not induce catalepsy at all; total catalepsy (rats [1]; i.p., 5 mg/kg perphenazine, 7.5 mg/kg fluphenazine, equimolar conjugates, sum 0-420 min, normalized to parent drug (FIG. 3a)): reduced catalepsy significantly; time course of catalepsy (rats [1]; i.p., over a period of 7 hours (FIGS. 4a, 4b)): reduced catalepsy as compared with perphenazine |
| OCCN1CCN(CCCN2c3ccccc3Sc3ccc(Cl)cc32)CC1 [Perphenazine, perphenazine, reference compound] | 60 | 18.4 ± 5.4 | 12.5 ± 1.29 | 8.85 ± 2.7 | 23.1 ± 2.3 | 26.6 | 19.8 | 22.6 | 15.3 | 16.2 | 11.3 | 21.3 | 109 | 1 | 2 | 2 | 3 | 2 | 2 | muscular rigidity and tachypnea (rats [3]): muscular rigidity and tachypnea were observed; catalepsy: percentage of animals reaching the target within 2 minutes (mice): higher catalepsy; IC50 (Jurkat T lymphoma cells; alamar blue method (FIG. 15), read-out: IC50, Jurkat T lymphoma cells viability): 16 µM; IC50 (C6 rat glioma cells [4]): 19.2 µM; DNA fragmentation (C6 rat glioma cells [5]): induced a dramatically increase in DNA fragmentation; decrease in cells viability (rat myocytes): 20%; time at which catalepsy peaked (rats [6]; male): 2 h; total catalepsy (rats [6]): catalepsy was induced; Sedation score (rats [2]; 2.5 mg/kg): 0; Sedation score (rats [2]; 5 mg/kg): 1; Sedation score (rats [2]; 10 mg/kg): 2; Sedation score (rats [2]; 20 mg/kg): 3 |

— US8168628B2, “Conjugated psychotropic drugs and uses thereof” (Ramot at Tel-Aviv University Ltd., priority 2001, dated 2012)
